Legend:
cancer patients = test: Test Example 4: correlation between vaccination with individual peptides (or peptide sets) and OS, Cox proportional hazards regression; format: in vivo, human; conditions: for HR: Cox proportional hazards regression, OS; for Correlation between immune responses and OS: Negative (mOS) / Correlation between immune responses and OS: Positive (mOS): Table 20, <64% neutrophil and ≥26% lymphocyte; for Correlation between immune responses and OS: Negative (mOS): vaccinated patients with negative IgG response; for Correlation between immune responses and OS: Positive (mOS): vaccinated patients with positive IgG response
How it was run: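 Univariate and multivariate Cox proportional hazards regression of each of 31 vaccine peptides against OS (enrollment to death or last contact), giving HR with 95% CI; also run separately in 2,085 advanced (stage IV+recurrence) and 503 stage I-III patients. Two-sided p<0.05 considered significant.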

[1] = system: anti-peptide IgG in plasma; test: Test Example 4: peptide-specific IgG titer pre and post vaccination, bead-based multiplexed Luminex assay; format: in vivo, human; conditions: for Pre-vaccination IgG Negative (number of patients) / Pre-vaccination IgG Positive (number of patients): cut off 10 FIU; for Post vaccination IgG: number of (positive) patients among vaccinated: positive IgG response; for Pre-vaccination IgG Negative patients: number of 2,588 patients below 10 FIU; for Pre-vaccination IgG Positive patients: number of 2,588 patients with ≥10 FIU; for Post vaccination IgG: (positive) patients: number of vaccinated patients with positive IgG response; for Correlation between immune responses and OS: Negative (mOS): patients with negative post-vaccination IgG response to the peptide; for Correlation between immune responses and OS: Positive (mOS): patients with positive post-vaccination IgG response to the peptide
How it was run: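 Plasma taken before vaccination and at the end of the first and second cycles; incubated with peptide-coupled beads 2 hours at 25° C., then biotinylated anti-human IgG (gamma chain-specific) and streptavidin-PE. Bead FIU read by Luminex; positivity cutoff 10 FIU in 100-fold diluted samples.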

[2] = Table 18, all 2,588 cases, vaccinated vs non-vaccinated
[3] = Table 18, all 2,588 cases, median OS of patients under PPV containing the peptide
[4] = Table 18, all 2,588 cases, median OS of patients under PPV not containing the peptide
[5] = Table 19, 2,085 advanced cancer patients (stage IV+recurrence)
[6] = Table 19, 2,085 advanced cancer patients (stage IV+recurrence), PPV containing the peptide
[7] = Table 19, 2,085 advanced cancer patients (stage IV+recurrence), PPV not containing the peptide
[8] = Table 21, patients showing both <64% neutrophil and ≥26% lymphocyte
[9] = Table 21, patients showing both <64% neutrophil and ≥26% lymphocyte, PPV containing the peptide
[10] = Table 21, patients showing both <64% neutrophil and ≥26% lymphocyte, PPV not containing the peptide
[11] = Table 20, patients showing both <64% neutrophil and ≥26% lymphocyte
[12] = patients showing detectable levels
[13] = patients showing positive responses
[14] = 2,085 advanced cancer patients (stage IV+recurrence)

Row | Sequence | HR (cancer patients; [2]) | Vaccinate cases (mOS) (cancer patients; [3]) | Non-vaccinate cases (mOS) (cancer patients; [4]) | HR (cancer patients; [5]) | Vaccinate cases (mOS) (cancer patients; [6]) | Non-vaccinate cases (mOS) (cancer patients; [7]) | Correlation between immune responses and OS: Negative (mOS) (cancer patients) | Correlation between immune responses and OS: Positive (mOS) (cancer patients) | HR (cancer patients; [8]) | Vaccinate cases (mOS) (cancer patients; [9]) | Non-vaccinate cases (mOS) (cancer patients; [10]) | Post vaccination IgG Median (FIU) [1, 11] | Pre-vaccination IgG Median (FIU) [1, 11] | Pre-vaccination IgG Negative (number of patients) [1, 11] | Pre-vaccination IgG Positive (number of patients) [1, 11] | Post vaccination IgG: number of (positive) patients among vaccinated [1, 11] | Pre-vaccination IgG Negative patients [1] | Pre-vaccination IgG Positive patients [1] | Post vaccination IgG: (positive) patients [1] | Pre-vaccination IgG Median (FIU) [1, 12] | also measured
1 | KLKHYGPGWV (listed as Homo sapiens) [CypB-129] | 0.9 | 483(12.3) M | 1458(11.2) M | 0.9 | 393(10.9) M | 1183(10.1) M | 13.2 months | 29.4 months | 0.9 | 196(19.3) M | 612(16.9) M | 3,143 FIU | 28 FIU | 290 | 776 | 196(110) | 700 | 1,888 | 483(222) | 31 FIU | Post vaccination IgG Median (FIU) [1, 13]: 2,483 FIU; Correlation between immune responses and OS: Negative (mOS) [1]: 9.0 months; Correlation between immune responses and OS: Positive (mOS) [1]: 23.8 months
2 | QIRPIFSNR (listed as Homo sapiens) [SART3-734] | 1.0 | 625(10.9) M | 589(11.3) M | 1.0 | 502(9.5) M | 467(10.2) M | 14.8 months | 29.3 months | 0.9 | 253(17.9) M | 254(17.5) M | 7,098 FIU | 96 FIU | 231 | 835 | 253(116) | 547 | 2,041 | 625(225) | 111 FIU | Post vaccination IgG Median (FIU) [1, 13]: 4,816 FIU; Correlation between immune responses and OS: Negative (mOS) [1]: 11.0 months; Correlation between immune responses and OS: Positive (mOS) [1]: 22.3 months
3 | LYAWEPSFL (listed as Homo sapiens) [MRP3-503] | 0.9 | 133(14.1) M | 1,417(11.9) M | 0.9 | 108(13.4) M | 1138(10.4) M | 12.6 months | 25.1 months | 1.0 | 61(24.3) M | 564(18.1) M | 13,871 FIU | 40 FIU | 885 | 181 | 61(46) | 2,121 | 467 | 133(85) | 37 FIU | Post vaccination IgG Median (FIU) [1, 13]: 6,401 FIU; Correlation between immune responses and OS: Negative (mOS) [1]: 9.3 months; Correlation between immune responses and OS: Positive (mOS) [1]: 20.6 months
4 | TFDYLRSVL (listed as Homo sapiens) [Lck-486] | 0.9 | 879(12.3) M | 671(11.3) M | 0.9 | 709(11.1) M | 537(9.6) M | 11.4 months | 25.2 months | 0.9 | 356(19.1) M | 269(17.6) M | 17,613 FIU | 40 FIU | 167 | 899 | 356(274) | 404 | 2,184 | 879(573) | 42 FIU | median OS of non-vaccinated cases (cancer patients; [14]): 9.6 months; median OS of vaccinated cases (cancer patients; [14]): 11.1 months; median OS of vaccinated cases (cancer patients; all 2,588 cases, PPV containing the peptide): 12.3 months; median OS of non-vaccinated cases (cancer patients; all 2,588 cases, PPV not containing the peptide): 11.3 months; Post vaccination IgG Median (FIU) [1, 13]: 15,147 FIU; Correlation between immune responses and OS: Negative (mOS) [1]: 7.2 months; Correlation between immune responses and OS: Positive (mOS) [1]: 19.4 months
5 | RLAEYQAYI (listed as Homo sapiens) [SART3-309] | 0.9 | 328(12.1) M | 722(11.1) M | 0.9 | 259(11.6) M | 603(9.8) M | 10.4 months | 28.9 months | 0.9 | 154(19.0) M | 280(15.6) M | 6,009 FIU | 33 FIU | 253 | 813 | 154(99) | 667 | 1,921 | 328(158) | 35 FIU | Post vaccination IgG Median (FIU) [1, 13]: 3,070 FIU; Correlation between immune responses and OS: Negative (mOS) [1]: 10.5 months; Correlation between immune responses and OS: Positive (mOS) [1]: 21.4 months
6 | DLLSHAFFA (listed as Homo sapiens) [MAP-432] | 1.0 | 375(11.1) M | 1,087(11.9) M | 1.1 | 296(9.7) M | 892(10.8) M | 15.5 months | 29.4 months | 1.1 | 133(16.1) M | 460(18.5) M | 947 FIU | 52 FIU | 549 | 517 | 133(45) | 1,280 | 1,308 | 375(97) | 51 FIU | Post vaccination IgG Median (FIU) [1, 13]: 757 FIU; Correlation between immune responses and OS: Negative (mOS) [1]: 12.0 months; Correlation between immune responses and OS: Positive (mOS) [1]: 23.8 months
7 | TYSVSFDSL (listed as Homo sapiens) [PSMA-624] | 1.0 | 101(11.7) M | 1,449(12.0) M | 1.1 | 78(7.9) M | 1168(10.7) M | 21.2 months | 24.4 months | 0.9 | 37(21.2) M | 588(18.0) M | 10,984 FIU | 26 FIU | 680 | 386 | 37(26) | 1,638 | 950 | 101(50) | 24 FIU | Post vaccination IgG Median (FIU) [1, 13]: 7,772 FIU; Correlation between immune responses and OS: Negative (mOS) [1]: 5.5 months; Correlation between immune responses and OS: Positive (mOS) [1]: 21.7 months
